Assay results: article PMC5482895, “Structural and biochemical studies of sulphotransferase 18 from Arabidopsis thaliana explain its substrate specificity and reaction mechanism” (Scientific Reports, 2017)

Columns and labels:
AtSOT18 [1] = molecular target: T1, AtSOT18 (Arabidopsis thaliana, UniProt Q9C9C9); experiment: sulphotransferase activity of purified enzyme, HPLC at […] nm; format: biochemical
T1 construct: gene SOT18
T1 sequence (Q9C9C9 1-350): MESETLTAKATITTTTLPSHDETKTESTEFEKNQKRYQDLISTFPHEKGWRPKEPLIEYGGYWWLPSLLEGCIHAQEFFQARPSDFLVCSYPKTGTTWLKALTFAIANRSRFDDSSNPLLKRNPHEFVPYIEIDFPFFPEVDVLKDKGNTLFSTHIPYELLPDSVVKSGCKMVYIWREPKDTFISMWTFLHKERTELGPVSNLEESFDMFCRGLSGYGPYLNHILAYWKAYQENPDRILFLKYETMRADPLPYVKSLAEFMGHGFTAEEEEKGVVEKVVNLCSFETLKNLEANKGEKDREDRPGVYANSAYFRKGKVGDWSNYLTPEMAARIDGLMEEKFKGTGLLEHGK

AtSOT18 [2] = molecular target: T1, AtSOT18; experiment: as above; format: biochemical; remark: listed apart in the source
AtSOT18 [3] = molecular target: T2, AtSOT18 (Arabidopsis thaliana, UniProt Q9C9C9); experiment: X-ray crystal structure ([…] Å), plus competitive inhibition kinetics against PAPS; format: biochemical
T2 construct: gene SOT18; residues 26–347 in the model
T2 sequence (Q9C9C9 26-347): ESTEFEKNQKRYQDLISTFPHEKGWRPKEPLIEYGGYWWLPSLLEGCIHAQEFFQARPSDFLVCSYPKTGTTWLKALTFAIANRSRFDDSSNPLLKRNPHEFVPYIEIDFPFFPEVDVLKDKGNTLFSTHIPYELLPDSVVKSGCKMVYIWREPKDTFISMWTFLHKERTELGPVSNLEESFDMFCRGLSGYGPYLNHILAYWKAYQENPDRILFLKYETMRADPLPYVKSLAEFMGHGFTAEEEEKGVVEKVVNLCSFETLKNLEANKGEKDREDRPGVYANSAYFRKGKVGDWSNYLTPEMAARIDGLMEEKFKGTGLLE

AtSOT18 [4] = molecular target: T1, AtSOT18; experiment: sulphotransferase activity of purified enzyme, HPLC at […] nm; format: biochemical; remark: listed apart in the source
AtSOT18 [5] = molecular target: T2, AtSOT18; experiment: X-ray crystal structure of ternary complex ([…] Å); format: binding
AtSOT18 [6] = molecular target: T1, AtSOT18; experiment: two-dimensional enzyme kinetic titration (HPLC), non-linear fit; format: biochemical
AtSOT18 [7] = molecular target: T1, AtSOT18; experiment: sulphotransferase activity of purified enzyme, HPLC at […] nm; format: biochemical; remark: listed apart in the source

**Q.** With `C=CC/C(=N/O)S[C@@H]1O[C@H](CO)[C@@H](O)[C@H](O)[C@H]1O` [Sinigrin (ds form), ds-Gl sinigrin] as the molecule, how does the Sinigrin (AtSOT18 [1]) read?
**A.** The Sinigrin was 879 ± 410 pkatal mg^−1.

**Q.** Which “3 MTP” value (AtSOT18 [2]) does the source give for `CSCCC/C(=N/O)S[C@@H]1O[C@H](CO)[C@@H](O)[C@H](O)[C@H]1O` [3MTP, ds-3MTP] here?
**A.** Its value is 1624 ± 122 pkatal mg^−1.

**Q.** Which Ki (AtSOT18 [3]) does the source give for `Nc1ncnc2c1ncn2[C@@H]1O[C@H](COP(=O)(O)O)[C@@H](OP(=O)(O)O)[C@H]1O` [PAP, 3′-phosphoadenosine 5′-phosphate] here?
**A.** The Ki was 3 ± 1.7 µM.

**Q.** `OC[C@H]1O[C@@H](S/C(Cc2c[nH]c3ccccc23)=N\O)[C@H](O)[C@@H](O)[C@@H]1O` [I3M, ds-I3M] was tested. Which I3M (AtSOT18 [4]) did it give?
**A.** The I3M was 501 ± 46 pkatal mg^−1.

**Q.** With `C=CCC(=NOS(=O)(=O)O)S[C@@H]1O[C@H](CO)[C@@H](O)[C@H](O)[C@H]1O` (stereo in doubt) [sinigrin] as the molecule, how does the “X-ray crystal structure of ternary complex (1.92 Å)” value (AtSOT18 [5]) read?
**A.** Its value is “together with the product Gl sinigrin (PDB ID: 5MEX) were solved”.

**Q.** How did the Kd (AtSOT18 [6]) turn out when `Nc1ncnc2c1ncn2[C@@H]1O[C@H](COP(=O)(O)OS(=O)(=O)O)[C@@H](OP(=O)(O)O)[C@H]1O` [PAPS, 3′-phosphoadenosine 5′-phosphosulphate] was run?
**A.** The Kd was 4.2 ± 2.6 µM.

**Q.** Which 8MTO (AtSOT18 [7]) does the source give for `CSCCCCCCCC/C(=N/O)S[C@@H]1O[C@H](CO)[C@@H](O)[C@H](O)[C@H]1O` [8MTO, ds-8MTO] here?
**A.** The 8MTO was 1618 ± 272 pkatal mg^−1.
